{"source": "patent US20140239906A1", "about": "“REDOX-ACTIVE LIGAND-BASED TRANSITION METAL COMPLEX FLOW BATTERIES” (Sandia Corporation, priority 2013, published 2014)", "key": {"[1]": {"experiment": "Stability under air (solid and acetonitrile solution), CV and UV-vis", "type": "physicochemical", "description": "Long-term stability is a key consideration in the development of RFB systems and recent research has included extensive investigations of state-of-the-art aqueous RFB systems. Factors affecting stability and the decay of capacity including membrane chemistry, thermal effects, gas evolution and electrode corrosion have been identified and this remains an active research area. In comparison, the long-term stability of non-aqueous RFBs remains to be investigated. […] To investigate its stability in solution, a 1 mM acetonitrile solution was analyzed, stored for a period of one week under air atmosphere, and subsequently analyzed. […] Long-term studies to investigate the stability of the membrane, electrode and electrolytes have been initiated."}, "[2]": {"experiment": "Solubility in acetonitrile by UV-vis spectroscopy", "type": "physicochemical", "conditions": "absorbance at 568 nm, Beers law", "method": "Solutions were prepared by mixing roughly equal volumes of metal complex and solvent. The resulting black solution was concentrated with a stream of N2 until a slight crust began to form, which was re-dissolved with warming and agitation. The sample was then centrifuged at 8000 RPM for two hours and allowed to stand overnight. Concentrations were determined using absorbance at 568 nm, ε568=4540 M^−1cm^−1."}, "[3]": {"experiment": "Cyclic voltammetry (redox potentials)", "type": "physicochemical", "conditions": "20 mM in CH3CN with 0.1 M [TBA][PF6], 250 mV/s, room temperature; mid-point of anodic and cathodic peak potentials", "description": "Ferrocene was used as an internal standard.\nCV of 1b, shown in FIG. 7, is similar to that reported previously for [V(mnt)3]^2− with various cations. Three reversible waves corresponding to the 4^−/3^−, 3^−/2^− and 2^−/1^− redox couples are observed at −1.41 V, −0.227 V and 0.856 V vs. SHE, respectively. Redox potential values reported herein correspond to the mid-point between the anodic and cathodic peak potentials of a cyclic voltammogram. […] Thus, a battery cell constructed using 1 as both anolyte and catholyte has a theoretical cell potential of […] and a theoretical energy density of 13 W·h·L^−1. However, bulk reduction of [V(mnt)3]^2− to [V(mnt)3]^3− in the anodic half-cell before charging would result in a theoretical cell potential and energy density of 2.3V and 28 W·h·L^−1, respectively. These values compare favorably to previously reported non-aqueous RFB electrolytes. A RFB based on [V(mnt)3]^2− solutions would also benefit from having the same chemical species in both half-cells, a strategy that has been employed previously to prevent irreversible self-discharge from crossover of active redox species through the membrane. This feature then also enables the use of inexpensive, microporous separators that are not ion-selective."}, "[4]": {"experiment": "Static cell (H-cell) galvanostatic charge-discharge cycling", "conditions": "20 mM in acetonitrile, 0.1 M [TBA][PF6]; through cycle 16", "experimental": "Cyclic voltammetry (CV) was carried out using a Bio-Logic SP-200 potentiostat, a glassy carbon working electrode, a Pt wire counter electrode and a silver-wire pseudo reference electrode. Ferrocene was used as an internal standard. For static cell battery testing, an H-cell was used containing 20 mM anolyte/catholyte and 100 mM [NBu4][PF6] supporting electrolyte. Charge and discharge currents were 1 mA and 0.1 mA, respectively. Graphite electrodes (POCO) having a 2 cm^2 active area and a Tonen V25EKD separator were used.\nA two-compartment cell with non-flowing solutions (i.e., “static cell”) was assembled to assess the charge-discharge characteristics of [V(mnt)3]^2− in a non-aqueous environment. Both compartments contained a 20 mM solution of 1b in acetonitrile with 0.1 M tetrabutylammonium hexafluorophosphate as supporting electrolyte. Two graphite electrodes (POCO) with 2 cm^2 active areas and a V25EKD separator (Tonen) were used. Because the discharged cathode and anode complexes are both in the 2^− oxidation state, it is presumed that the cathode complex converts to the 1^− state and the anode complex converts to the 3^− state during charge."}}, "data": [{"smiles": "C[N+](C)(C)C.C[N+](C)(C)C.N#CC([S-])=C([S-])C#N.N#CC([S-])=C([S-])C#N.N#CC([S-])=C([S-])C#N.[V+4]", "note": "[1a]", "values": [{"measurement": "stability in solution (CV and UV-vis spectroscopy)", "setting": "[1]; 1 mM acetonitrile solution, one week under air atmosphere", "value": "unchanged"}, {"measurement": "stability as prepared to ambient oxygen and moisture", "setting": "[1]; as prepared, stored under air", "value": "no decomposition was observed"}]}, {"smiles": "CC[N+](CC)(CC)CC.CC[N+](CC)(CC)CC.N#CC([S-])=C([S-])C#N.N#CC([S-])=C([S-])C#N.N#CC([S-])=C([S-])C#N.[V+4]", "note": "[1b]", "values": [{"measurement": "maximum solubility", "setting": "[2]", "value": "~900", "unit": "mM"}, {"measurement": "redox potential 2−/1− couple", "setting": "[3]", "value": 0.856, "unit": "V vs. SHE"}, {"measurement": "redox potential 3−/2− couple", "setting": "[3]", "value": "−0.227", "unit": "V vs. SHE"}, {"measurement": "redox potential 4−/3− couple", "setting": "[3]", "value": "−1.41", "unit": "V vs. SHE"}, {"measurement": "electrochemical yield (faradaic efficiency) of charge cycles, stabilized", "setting": "[4]", "value": "20-25%"}]}]}
